Results taken from patent publication US11672786B2, “Methods of treating diseases associated with repeat instability” (The Hospital for Sick Children, priority 2016, dated 2023).

Assays:
[1] = tested on: (CAG)10 hairpins; details: cited from earlier work
[2] = tested on: long (CTG)20 slip-out; assay: in vitro repair assay by HeLa cell extracts, long (CTG)20 slip-out; format: biochemical, human
Text: (§1) Panel A of […] is a schematic of the in vitro repair assay. Starting DNAs and repair products released the repeat-containing fragment, which is resolved on PAGE and assessed on a molar level by Southern blotting and densitometry. Repair of different DNA substrates containing a long (CAG)20 slip-out (Panel B of FIG. 3) long (CTG)20 slip-out (Panel C of FIG. 3), a single CAG slip-out (Panel D of FIG. 3) or a single G-T mismatch (Panel E of FIG. 3), in the absence or in the presence of NA. Slipped-DNA substrates were prepared from hybrids of (CAG)50●(CTG)30, (CAG)30●(CTG)50 or of (CAG)50●(CTG)49. Repair of the G-T mismatch reconstitutes a HindIII restriction site, as shown schematically. Graphs show percentage repair efficiencies to repaired product relative to all repeat-containing fragments in the lane, values are normalized to the NA-free efficiency. […]
(§2) To determine how the binding of NA to slipped DNA structures affects repair, a series of circular slipped heteroduplex substrates was made with an excess of repeats with a nick located either 5′ or 3′ of the slip-out (FIG. 3). […] All these substrates were processed in […] by HeLa extracts and then were assessed for repair. Repair products were analyzed by Southern blotting, probed for the repeat-containing fragment, and compared with starting material, which permitted quantitative assessment of repair efficiency at a molar level. […]

[3] = tested on: long (CAG)20 slip-out; assay: in vitro repair assay by HeLa cell extracts, long (CAG)20 slip-out; format: biochemical, human
Text: as §1, §2

[4] = tested on: clustered short slip-outs on (CAG)50●(CTG)50 (S-DNA); assay: band-shift NA-DNA binding, clustered short slip-outs (S-DNA); parameters: species or system human; details: NA 0.15-50 μM, 4% polyacrylamide gel
Text: FIG. 2 are the results of experiments showing that NA binds to long CAG slip-outs. […] The (CAG)n DNA sequence (left) can fold into an hairpin structure involving mismatched A-A pair flanking C-G base pairs (middle). NA molecules can intercalate into the DNA helix, with the 2-amino-1,8-naphthyridine moiety (in red) hydrogen bonding to guanine and 8-azaquinolone moiety (in blue) hydrogen bonding to adenine. […] Long slip-outs extruded as a single slip-out from a fully base-paired backbone of (CTG)n●(CAG)n, as described (Pearson et al., 2002, Nuc. Acids Res., 30:4534-47). DNAs were mixed with increasing concentrations of NA (0.15 μM, 0.75 μM, 7.5 μM and 50 μM) and resolved on 4% polyacrylamide gels. All lanes are from the same gel, and they were separated for clarity. NA-DNA complexes are shown by brackets, free DNA is indicated by arrowheads. […] The relative migration was measured for the linear and the three slip-outs substrates as the ratio of the migration distance of each NA-DNA complex to the migration distance of the free DNA. The migration distance was measured from the well to a consistent center point of each band. […]

[5] = tested on: d(CAG)10; details: ESI-TOF MS; cited from earlier work

For naphthyridine-azaquinolone, the “melting temperature of (CAG)10 hairpins with NA” value ([1]; 50 μM NA, 47.1 (±0.7)° C. without NA) is given as 78.8 (±0.1) ° C, the “increase of the melting temperature of (CAG)10 hairpins” value [1] is given as over 30 °C and the “effect on repair of long (CTG)20 slip-outs” value [2] is given as “doesn't affect the repair efficiency”. The “effect on repair of long (CAG)20 slip-outs” value [3] was “specifically inhibits repair”, the “NA binding (band-shift)” value [4] was “can bind NA to a limited degree” and the “number of NA molecules bound to the repeat” value [5] was “at least 6 NA molecules”.
